≈ marks a conversion by molar mass, not a printed value. Read-outs that look alike come from different tables or passages of the source.
Assays:
[1] = tested on: Phytophthora capsici (Pc); assay: Growth inhibition assay of fungal pathogens; format: cell-based; conditions: for IC90: Phytophthora capsici, read-out: Concentration at 90% Inhibition Pc
Outline: (§1)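 Percent growth inhibition was derived from 48 h OD600 and visual scores relative to 2% DMSO, with blank background subtraction. Fungi were grown from spores in 17% V8 liquid medium, R. solani from 1.5 mm plugs in ¼ PDB, with compound at final 50/10/2 or 2/0.4/0.08 ppm.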

[2] = tested on: Rhizoctonia solani (Rs); assay: Growth inhibition assay of fungal pathogens; format: cell-based; conditions: 48 h, read-out: Concentration at 90% Inhibition Rs
Outline: (§2)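 Spores of Fm, Bc and Dm were suspended in 17% V8 liquid medium, while Rs was inoculated as 1.5 mm mycelial plugs in ¼ PDB. Compounds were tested at final 50, 10 and 2 ppm or 2, 0.4 and 0.08 ppm. Percent growth inhibition at 48 h versus 2% DMSO came from OD600 and visual ratings.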

[3] = tested on: Fusarium moniliforme (Fm); assay: Growth inhibition assay of fungal pathogens; format: cell-based; conditions: for IC90: Fusarium verticillioides, 48 h, read-out: Concentration at 90% Inhibition Fm
Outline: as §2

[4] = tested on: Fusarium virguliforme (Fv); assay: Growth inhibition assay of fungal pathogens; format: cell-based; conditions: 48 h
Outline: as §1

[5] = tested on: Botrtyis cinerea (Bc); assay: Growth inhibition assay of fungal pathogens; format: cell-based; conditions: 48 h, read-out: Concentration at 90% Inhibition Bc
Outline: as §2

[6] = tested on: Diplodia maydis (Dm); assay: Growth inhibition assay of fungal pathogens; format: cell-based; conditions: Stenocarpella maydis, 48 h, read-out: Concentration at 90% Inhibition Dm
Outline: as §2

[7] = tested on: Collectotrichum graminicola (Cg); assay: Growth inhibition assay of fungal pathogens; format: cell-based; conditions: 48 h, read-out: Concentration at 90% Inhibition Cg
Outline: as §1

[8] = tested on: Septoria tritici (St); assay: Growth inhibition assay of fungal pathogens; format: cell-based; conditions: for IC90: Zymoseptoria tritici, read-out: Concentration at 90% Inhibition St
Outline: as §1

[9] = target: human (hACC2) ACC2 (Homo sapiens, UniProt O00763); assay: In vitro Acetyl-CoA Carboxylase (ACC) inhibition assay (ADP-Glo), hACC2; format: biochemical
Description: The detailed procedure is as follows. […] 10 μL ADP glo reagent was added. […] 20 μL kinase detection reagent was added.
“NA” stands for “not assayed.”

[10] = target: fungal (fACC2) ACC2 (UniProt Q00955); conditions: read-out: fACC2 IC50; fungal ACC2, ADP-Glo
Description: An exemplary procedure for the in vitro ACC inhibition assay, which can be used to determine the inhibitory action of compounds of the invention toward either human (hACC2) or fungal (fACC2) ACC2, follows. The ADP-Glo™ Kinase Assay kit from Promega was used. The ADP-Glo™ Kinase Assay is a luminescent ADP detection assay to measure enzymatic activity by quantifying the amount of ADP produced during an enzyme reaction. The assay is performed in two steps; first, after the enzyme reaction, an equal volume of ADP-Glo™ Reagent is added to terminate the reaction and deplete the remaining ATP. Second, the Kinase Detection Reagent is added to simultaneously convert ADP to ATP and allow the newly synthesized ATP to be measured using a luciferase/luciferin reaction. Luminescence can be correlated to ADP concentrations by using an ATP-to-ADP conversion curve. The detailed procedure is as follows. 50 μL of the compound being tested (600 μM in DMSO) was added to a 384-well dilution plate. The compound was diluted 1:3 in succession in DMSO for each row for 11 wells. 0.5 μL ACC2 working solution was added to 384-well white Optiplate assay plate. 0.5 μL diluted compound solution in each column from step 2 was added to assay plate, each row containing 2 replicates. […] The plates were incubated at room temperature for 15 minutes. 5 μL substrate working solution was added to each well to initiate reaction. Final ACC2 reaction concentrations consist of: 5 nM ACC2, 20 μM ATP, 20 μM acetyl-CoA, 12 mM NaHCO3, 0.01% Brij35, 2 mM DTT, 5% DMSO, test compound concentrations: 30 μM, 10 μM, 3.33 μM, 1.11 μM, 0.37 μM, 0.123 μM, 0.0411 μM, 0.0137 μM, 0.00457 μM, 0.00152 μM, and 0.00051 μM. Plates were incubated at room temperature for 60 minutes. 10 μL ADP glo reagent was added. Plates were incubated at room temperature for 40 minutes. 20 μL kinase detection reagent was added. Plates were incubated at room temperature for 40 minutes, and then read on a Perkin Elmer EnVision 2104 plate reader for luminescence as Relative Light Units (RLU).
Data for each concentration, as well as the positive and negative controls were averaged, and the standard deviation calculated. Percent inhibition was calculated by the formula: 100×(average negative control−compound)/(average negative control−average positive control). The IC50 for each compound was calculated by fitting the data with a non-linear regression equation: Y=Bottom+(Top-Bottom)/(1+10^((Log IC50−X)*Hill Slope)), where X is the log of compound concentration and Y is percent inhibition.
Compounds having an activity designated as “AA” provided an IC50 0.0006-0.003 μM; provided an “A” provided an IC50 0.003-0.01 μM; compounds having an activity designated as “B” provided an IC50 0.01-0.04 μM; and compounds having an activity designated as “C” provided an IC50>0.04 μM IC50. “NA” stands for “not assayed.”

[11] = tested on: C. krusei ATCC 6258; assay: Anti-Fungal (Candida) Activity Assay, broth microtiter MIC; format: cell-based; conditions: Pichia kudriavzevii, read-out: MIC C. krusei ATCC 6258
Outline: (§3)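 In CLSI M27-A3 microtiter plates, yeast from overnight agar culture is inoculated in RPMI 1640–MOPS at a standard-curve density. The MIC is the endpoint scored visually against growth control at 48 h.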

[12] = tested on: C. albicans ATCC 90028; assay: as above; format: cell-based; conditions: read-out: MIC C. albicans ATCC 90028
Outline: as §3

[13] = tested on: C. parapsilosis ATCC 22019; assay: as above; format: cell-based; conditions: Lodderomyces parapsilosis, read-out: MIC C. parapsilosis ATCC 22019
Outline: as §3

[14] = Table 4a, 48 hours, read-out: Concentration at 90% Inhibition Fv
[15] = Table 4b, 48 hours, read-out: Concentration at 90% Inhibition Fv
[16] = ATCC6258, 3 replicates, MIC recorded at 48 h
[17] = ATCC90028, 3 replicates, MIC recorded at 48 h
[18] = ATCC22019, 3 replicates, MIC recorded at 48 h
[19] = read-out: Concentration at 90% Inhibition Fv, Table 4a, 48 hours
[20] = read-out: Concentration at 90% Inhibition Fv, Table 4b, 48 hours

fungal (fACC2) ACC2, sequence (Q00955 whole entry): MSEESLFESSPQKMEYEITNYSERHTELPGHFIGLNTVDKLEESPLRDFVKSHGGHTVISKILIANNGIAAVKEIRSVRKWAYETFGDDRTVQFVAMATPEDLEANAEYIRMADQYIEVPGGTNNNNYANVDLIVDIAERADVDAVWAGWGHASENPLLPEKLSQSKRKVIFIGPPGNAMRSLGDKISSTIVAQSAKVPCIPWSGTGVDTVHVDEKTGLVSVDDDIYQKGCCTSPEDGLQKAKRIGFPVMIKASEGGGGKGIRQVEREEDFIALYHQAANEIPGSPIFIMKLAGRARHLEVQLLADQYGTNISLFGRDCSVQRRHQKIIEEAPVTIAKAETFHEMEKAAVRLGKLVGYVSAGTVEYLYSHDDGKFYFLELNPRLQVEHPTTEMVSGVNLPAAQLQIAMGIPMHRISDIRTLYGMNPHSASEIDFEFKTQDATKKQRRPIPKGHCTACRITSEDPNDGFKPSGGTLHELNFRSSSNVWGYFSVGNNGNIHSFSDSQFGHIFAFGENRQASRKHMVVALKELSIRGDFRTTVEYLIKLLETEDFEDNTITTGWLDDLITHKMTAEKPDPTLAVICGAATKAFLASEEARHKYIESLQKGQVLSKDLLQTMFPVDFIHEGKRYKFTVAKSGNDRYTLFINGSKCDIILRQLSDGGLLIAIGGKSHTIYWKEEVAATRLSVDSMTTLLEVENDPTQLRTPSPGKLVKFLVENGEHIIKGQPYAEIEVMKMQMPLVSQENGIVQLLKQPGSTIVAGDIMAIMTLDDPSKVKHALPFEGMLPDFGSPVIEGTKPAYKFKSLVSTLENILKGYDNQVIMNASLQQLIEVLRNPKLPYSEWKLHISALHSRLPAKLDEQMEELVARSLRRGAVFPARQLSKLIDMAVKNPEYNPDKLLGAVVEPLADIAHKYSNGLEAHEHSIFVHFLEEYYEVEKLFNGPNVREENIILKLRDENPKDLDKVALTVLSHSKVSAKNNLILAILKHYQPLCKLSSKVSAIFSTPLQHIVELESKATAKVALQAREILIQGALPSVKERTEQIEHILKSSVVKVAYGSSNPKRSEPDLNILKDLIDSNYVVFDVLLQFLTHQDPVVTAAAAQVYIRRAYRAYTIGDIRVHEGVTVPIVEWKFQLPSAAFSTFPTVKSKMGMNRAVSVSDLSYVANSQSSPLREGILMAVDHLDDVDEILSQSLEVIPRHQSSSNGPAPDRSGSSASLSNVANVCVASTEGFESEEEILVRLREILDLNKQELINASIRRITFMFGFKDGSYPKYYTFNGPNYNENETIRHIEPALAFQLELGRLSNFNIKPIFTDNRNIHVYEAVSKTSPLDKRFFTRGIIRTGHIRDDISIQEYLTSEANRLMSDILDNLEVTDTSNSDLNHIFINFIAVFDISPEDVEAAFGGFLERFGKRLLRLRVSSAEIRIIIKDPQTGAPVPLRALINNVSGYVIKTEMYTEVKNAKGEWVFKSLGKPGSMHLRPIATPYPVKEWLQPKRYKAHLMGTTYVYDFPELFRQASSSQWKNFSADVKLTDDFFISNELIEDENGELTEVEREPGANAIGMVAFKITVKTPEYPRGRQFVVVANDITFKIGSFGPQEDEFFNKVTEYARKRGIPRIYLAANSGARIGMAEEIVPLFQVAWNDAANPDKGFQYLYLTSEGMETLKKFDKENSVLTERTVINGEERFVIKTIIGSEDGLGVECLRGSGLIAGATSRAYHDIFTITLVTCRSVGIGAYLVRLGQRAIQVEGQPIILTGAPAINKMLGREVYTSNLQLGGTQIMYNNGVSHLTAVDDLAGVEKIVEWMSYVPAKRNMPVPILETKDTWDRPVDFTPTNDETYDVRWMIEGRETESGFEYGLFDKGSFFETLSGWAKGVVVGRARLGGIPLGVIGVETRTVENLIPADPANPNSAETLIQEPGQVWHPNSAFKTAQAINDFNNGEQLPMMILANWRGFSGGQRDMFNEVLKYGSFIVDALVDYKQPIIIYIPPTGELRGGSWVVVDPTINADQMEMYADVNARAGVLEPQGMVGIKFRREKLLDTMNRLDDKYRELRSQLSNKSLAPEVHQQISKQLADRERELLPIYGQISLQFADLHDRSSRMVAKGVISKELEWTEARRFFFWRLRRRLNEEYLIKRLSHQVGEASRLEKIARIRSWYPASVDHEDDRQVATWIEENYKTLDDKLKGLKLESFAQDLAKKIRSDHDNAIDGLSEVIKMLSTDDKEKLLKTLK
human (hACC2) ACC2, sequence (O00763 whole entry): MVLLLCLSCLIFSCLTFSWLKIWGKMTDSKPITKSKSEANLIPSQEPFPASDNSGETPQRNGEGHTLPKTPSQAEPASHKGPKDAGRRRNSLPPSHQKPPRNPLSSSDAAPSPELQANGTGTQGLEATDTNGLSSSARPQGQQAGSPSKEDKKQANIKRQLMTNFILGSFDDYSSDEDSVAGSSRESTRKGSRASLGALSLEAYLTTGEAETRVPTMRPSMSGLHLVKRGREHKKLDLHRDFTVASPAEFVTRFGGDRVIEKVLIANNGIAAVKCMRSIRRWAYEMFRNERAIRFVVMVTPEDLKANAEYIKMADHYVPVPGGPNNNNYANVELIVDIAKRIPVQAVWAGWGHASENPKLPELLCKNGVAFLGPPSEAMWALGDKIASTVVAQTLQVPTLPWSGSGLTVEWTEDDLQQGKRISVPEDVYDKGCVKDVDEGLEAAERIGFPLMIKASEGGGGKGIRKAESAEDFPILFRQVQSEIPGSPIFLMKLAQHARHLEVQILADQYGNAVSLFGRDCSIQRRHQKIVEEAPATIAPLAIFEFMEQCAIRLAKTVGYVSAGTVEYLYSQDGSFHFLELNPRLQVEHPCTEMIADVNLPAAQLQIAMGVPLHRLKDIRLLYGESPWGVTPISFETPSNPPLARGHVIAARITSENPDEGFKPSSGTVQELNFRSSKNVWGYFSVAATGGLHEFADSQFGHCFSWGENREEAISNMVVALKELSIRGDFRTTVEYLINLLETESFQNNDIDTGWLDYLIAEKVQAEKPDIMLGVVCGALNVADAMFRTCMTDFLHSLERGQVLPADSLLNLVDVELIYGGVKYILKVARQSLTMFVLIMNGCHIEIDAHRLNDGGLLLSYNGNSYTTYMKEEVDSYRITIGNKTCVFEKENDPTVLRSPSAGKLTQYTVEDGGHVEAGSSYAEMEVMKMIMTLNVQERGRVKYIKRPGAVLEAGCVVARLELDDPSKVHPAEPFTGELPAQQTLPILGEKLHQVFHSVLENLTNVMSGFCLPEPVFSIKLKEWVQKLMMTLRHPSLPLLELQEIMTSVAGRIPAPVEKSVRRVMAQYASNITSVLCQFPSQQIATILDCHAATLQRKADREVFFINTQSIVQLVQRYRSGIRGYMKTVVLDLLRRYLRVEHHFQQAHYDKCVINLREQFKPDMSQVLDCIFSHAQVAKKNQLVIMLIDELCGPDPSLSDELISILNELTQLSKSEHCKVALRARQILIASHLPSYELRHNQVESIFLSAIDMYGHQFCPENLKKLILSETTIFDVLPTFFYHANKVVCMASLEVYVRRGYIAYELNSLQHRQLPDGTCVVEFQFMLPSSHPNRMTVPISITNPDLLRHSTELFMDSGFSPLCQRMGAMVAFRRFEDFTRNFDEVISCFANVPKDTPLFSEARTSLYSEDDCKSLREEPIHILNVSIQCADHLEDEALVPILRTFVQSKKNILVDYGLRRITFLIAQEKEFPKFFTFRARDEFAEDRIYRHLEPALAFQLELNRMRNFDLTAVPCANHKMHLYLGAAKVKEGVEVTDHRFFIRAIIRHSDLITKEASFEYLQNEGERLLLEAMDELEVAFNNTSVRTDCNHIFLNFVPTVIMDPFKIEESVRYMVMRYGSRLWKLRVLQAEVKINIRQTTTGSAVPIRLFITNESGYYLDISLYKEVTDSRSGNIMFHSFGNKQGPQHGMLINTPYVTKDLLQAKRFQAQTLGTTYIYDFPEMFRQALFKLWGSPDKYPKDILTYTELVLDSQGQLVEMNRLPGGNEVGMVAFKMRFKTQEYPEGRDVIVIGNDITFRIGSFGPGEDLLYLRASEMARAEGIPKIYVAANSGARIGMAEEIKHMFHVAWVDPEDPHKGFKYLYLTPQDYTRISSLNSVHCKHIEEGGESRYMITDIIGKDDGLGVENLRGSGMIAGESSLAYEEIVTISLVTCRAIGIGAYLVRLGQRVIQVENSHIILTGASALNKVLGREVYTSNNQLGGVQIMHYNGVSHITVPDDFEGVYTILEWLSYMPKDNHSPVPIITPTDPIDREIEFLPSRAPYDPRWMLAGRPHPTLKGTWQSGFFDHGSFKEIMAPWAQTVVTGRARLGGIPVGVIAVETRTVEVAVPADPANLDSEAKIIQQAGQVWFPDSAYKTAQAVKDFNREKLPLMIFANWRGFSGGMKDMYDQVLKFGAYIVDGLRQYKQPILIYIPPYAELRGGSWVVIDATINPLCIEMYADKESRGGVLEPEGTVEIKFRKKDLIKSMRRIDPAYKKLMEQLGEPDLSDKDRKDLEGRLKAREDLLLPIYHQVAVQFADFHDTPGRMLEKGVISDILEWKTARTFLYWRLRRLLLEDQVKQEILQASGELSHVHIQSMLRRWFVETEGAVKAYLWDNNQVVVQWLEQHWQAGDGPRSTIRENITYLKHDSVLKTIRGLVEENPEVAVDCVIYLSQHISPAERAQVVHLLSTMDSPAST

| SMILES | IC90 ([1]; Table 4a, 48 hours) | Concentration at 90% Inhibition Pc ([1]; Table 4b, 48 hours) | IC90 ([2]; Table 4a) | IC90 ([2]; Table 4b) | IC90 ([3]; Table 4a, 48 hours) | IC90 ([3]; Table 4b, 48 hours) | IC90 [4, 14] | IC90 [4, 15] | IC90 ([5]; Table 4a) | IC90 ([5]; Table 4b) | IC90 ([6]; Table 4a) | IC90 ([6]; Table 4b) | IC90 ([7]; Table 4a) | IC90 ([7]; Table 4b) | Concentration at 90% Inhibition St ([8]; Table 4b, 48 hours) | IC90 ([8]; Table 4a, 48 hours) | IC50 [9] | IC50 [10] | MIC [11, 16] | MIC [12, 17] | also measured |
| --- | --- | --- | --- | --- | --- | --- | --- | --- | --- | --- | --- | --- | --- | --- | --- | --- | --- | --- | --- | --- | --- |
| CCO[C@@H](Cn1c(=O)n(C(C)(C)C(=O)N2CCCC2)c(=O)c2c(C)c(-n3cccn3)sc21)c1cc(F)ccc1OC [Compound I-34, (R)-1-(2-ethoxy-2-(5-fluoro-2-methoxyphenyl)ethyl)-5-methyl-3-(2-methyl-1-oxo-1-(pyrrolidin-1-yl)propan-2-yl)-6-(1H-pyrazol-1-yl)thieno[2,3-d]pyrimidine-2,4(1H,3H)-dione] | > 50 µg/mL | D (“D” provided a compound concentration of >50 ppm at 90% inhibition of fungal pathogens) | 2 µg/mL (≈ 3.43 µM) | 2 µg/mL (≈ 3.43 µM) | 0.08 µg/mL (≈ 0.137 µM) | 0.08 µg/mL (≈ 0.137 µM) | 0.4 µg/mL (≈ 0.685 µM) | 0.4 µg/mL (≈ 0.685 µM) | 0.4 µg/mL (≈ 0.685 µM) | 0.4 µg/mL (≈ 0.685 µM) | 10 µg/mL (≈ 17.1 µM) | 2 µg/mL (≈ 3.43 µM) | 2 µg/mL (≈ 3.43 µM) | 2 µg/mL (≈ 3.43 µM) | D (“D” provided a compound concentration of >50 ppm at 90% inhibition of fungal pathogens) | > 50 µg/mL | 10 to 40 nM | 0.6 to 3 nM | > 4.1 µg/mL | > 4.1 µg/mL | MIC [13, 18]: > 4.1 µg/mL |
| COc1ccc(F)cc1[C@H](Cn1c(=O)n(C(C)(C)C(=O)N2CCCC2)c(=O)c2c(C)c(-n3cccn3)sc21)OCCO [Compound I-36, (R)-1-(2-(5-fluoro-2-methoxyphenyl)-2-(2-hydroxy-ethoxy)ethyl)-5-methyl-3-(2-methyl-1-oxo-1-(pyrrolidin-1-yl)propan-2-yl)-6-(1H-pyrazol-1-yl)thieno[2,3-d]pyrimidine-2,4(1H,3H)-dione] | > 50 µg/mL | D (“D” provided a compound concentration of >50 ppm at 90% inhibition of fungal pathogens) | > 50 µg/mL | 10 µg/mL (≈ 16.7 µM) | 2 µg/mL (≈ 3.34 µM) | 2 µg/mL (≈ 3.34 µM) | 2 µg/mL (≈ 3.34 µM) | 2 µg/mL (≈ 3.34 µM) | > 50 µg/mL | 10 µg/mL (≈ 16.7 µM) | > 50 µg/mL | > 50 µg/mL | > 50 µg/mL | 10 µg/mL (≈ 16.7 µM) | D (“D” provided a compound concentration of >50 ppm at 90% inhibition of fungal pathogens) | > 50 µg/mL | 3 to 10 nM | 0.6 to 3 nM | 1.1 to 2 µg/mL (≈ 1.83 to 3.34 µM) | 2.1 to 4 µg/mL (≈ 3.5 to 6.67 µM) | MIC [13, 18]: 2.1 to 4 µg/mL (≈ 3.5 to 6.67 µM) |
| COc1ccc(F)cc1[C@H](Cn1c(=O)n(C(C)(C)C(=O)N2CCCC2)c(=O)c2c(C)c(-n3cccn3)sc21)OC[C@@H](C)O [Compound I-37, 1-((R)-2-(5-fluoro-2-methoxyphenyl)-2-((R)-2-hydroxy-propoxy)ethyl)-5-methyl-3-(2-methyl-1-oxo-1-(pyrrolidin-1-yl)propan-2-yl)-6-(1H-pyrazol-1-yl)thieno[2,3-d]pyrimidine-2,4(1H,3H)-dione] | > 50 µg/mL | D (“D” provided a compound concentration of >50 ppm at 90% inhibition of fungal pathogens) | 10 µg/mL (≈ 16.3 µM) | 2 µg/mL (≈ 3.26 µM) | 0.4 µg/mL (≈ 0.652 µM) | 0.4 µg/mL (≈ 0.652 µM) | 2 µg/mL (≈ 3.26 µM) | 2 µg/mL (≈ 3.26 µM) | 2 µg/mL (≈ 3.26 µM) | 2 µg/mL (≈ 3.26 µM) | > 50 µg/mL | 10 µg/mL (≈ 16.3 µM) | > 50 µg/mL | 10 µg/mL (≈ 16.3 µM) | D (“D” provided a compound concentration of >50 ppm at 90% inhibition of fungal pathogens) | > 50 µg/mL | 3 to 10 nM | 0.6 to 3 nM | 1.1 to 2 µg/mL (≈ 1.79 to 3.26 µM) | 2.1 to 4 µg/mL (≈ 3.42 to 6.52 µM) | MIC [13, 18]: 2.1 to 4 µg/mL (≈ 3.42 to 6.52 µM) |
| COc1ccc(F)cc1[C@H](Cn1c(=O)n(C(C)(C)C(=O)NC(C)C)c(=O)c2c(C)c(-n3cccn3)sc21)OC[C@H](C)O [Compound I-38, 2-(1-((R)-2-(5-fluoro-2-methoxyphenyl)-2-((S)-2-hydroxy-propoxy)ethyl)-5-methyl-2,4-dioxo-6-(1H-pyrazol-1-yl)-1,4-dihydrothieno[2,3-d]pyrimidin-3(2H)-yl)-N-isopropyl-2-methylpropanamide] | – | – | 10 µg/mL (≈ 16.6 µM) | 2 µg/mL (≈ 3.32 µM) | – | – | – | – | 2 µg/mL (≈ 3.32 µM) | 2 µg/mL (≈ 3.32 µM) | > 50 µg/mL | 10 µg/mL (≈ 16.6 µM) | > 50 µg/mL | 10 µg/mL (≈ 16.6 µM) | – | – | 10 to 40 nM | 0.6 to 3 nM | – | – | IC90 ([1]; 48 h, Table 4a): > 50 µg/mL; IC90 ([1]; 48 h, Table 4b): > 50 µg/mL; IC90 [3]: 0.4 µg/mL (≈ 0.665 µM); Concentration at 90% Inhibition Fm ([3]; Table 4b, 48 hours): A (“A” provided a compound concentration of 0.4 ppm at 90% inhibition of fungal pathogens); IC90 [4, 19]: 2 µg/mL (≈ 3.32 µM); IC90 [4, 20]: 2 µg/mL (≈ 3.32 µM); IC90 ([8]; 48 h, Table 4a): > 50 µg/mL; IC90 ([8]; 48 h, Table 4b): > 50 µg/mL; MIC ([11]; ATCC6258, 48 h): 2.1 to 4 µg/mL (≈ 3.49 to 6.65 µM); MIC ([12]; ATCC90028, 48 h): > 4.1 µg/mL; MIC ([13]; ATCC22019, 48 h): > 4.1 µg/mL |
| COc1ccc(F)cc1[C@H](Cn1c(=O)n(C(C)(C)C(=O)NC(C)C)c(=O)c2c(C)c(-n3cccn3)sc21)OC[C@@H](C)O [Compound I-39, 2-(1-((R)-2-(5-fluoro-2-methoxyphenyl)-2-((R)-2-hydroxy-propoxy)ethyl)-5-methyl-2,4-dioxo-6-(1H-pyrazol-1-yl)-1,4-dihydrothieno[2,3-d]pyrimidin-3(2H)-yl)-N-isopropyl-2-methylpropanamide] | – | – | 0.4 µg/mL (≈ 0.665 µM) | 0.4 µg/mL (≈ 0.665 µM) | – | – | – | – | 2 µg/mL (≈ 3.32 µM) | 2 µg/mL (≈ 3.32 µM) | 10 µg/mL (≈ 16.6 µM) | 2 µg/mL (≈ 3.32 µM) | 0.4 µg/mL (≈ 0.665 µM) | 0.4 µg/mL (≈ 0.665 µM) | – | – | 3 to 10 nM | 0.6 to 3 nM | – | – | IC90 ([1]; 48 h, Table 4a): > 50 µg/mL; IC90 ([1]; 48 h, Table 4b): 10 µg/mL (≈ 16.6 µM); IC90 [3]: 0.4 µg/mL (≈ 0.665 µM); Concentration at 90% Inhibition Fm ([3]; Table 4b, 48 hours): A (“A” provided a compound concentration of 0.4 ppm at 90% inhibition of fungal pathogens); IC90 [4, 19]: > 50 µg/mL; IC90 [4, 20]: 2 µg/mL (≈ 3.32 µM); IC90 ([8]; 48 h, Table 4a): > 50 µg/mL; IC90 ([8]; 48 h, Table 4b): 10 µg/mL (≈ 16.6 µM); MIC ([11]; ATCC6258, 48 h): 2.1 to 4 µg/mL (≈ 3.49 to 6.65 µM); MIC ([12]; ATCC90028, 48 h): > 4.1 µg/mL; MIC ([13]; ATCC22019, 48 h): > 4.1 µg/mL |
| COc1ccc(F)cc1[C@H](Cn1c(=O)n(C(C)(C)C(=O)N2CCCC2)c(=O)c2c(C)c(-n3cccn3)sc21)OC[C@H](C)O [Compound I-40, 1-((R)-2-(5-fluoro-2-methoxyphenyl)-2-((S)-2-hydroxy-propoxy)ethyl)-5-methyl-3-(2-methyl-1-oxo-1-(pyrrolidin-1-yl)propan-2-yl)-6-(1H-pyrazol-1-yl)thieno[2,3-d]pyrimidine-2,4(1H,3H)-dione] | > 50 µg/mL | D (“D” provided a compound concentration of >50 ppm at 90% inhibition of fungal pathogens) | 10 µg/mL (≈ 16.3 µM) | 2 µg/mL (≈ 3.26 µM) | 2 µg/mL (≈ 3.26 µM) | 2 µg/mL (≈ 3.26 µM) | > 50 µg/mL | 10 µg/mL (≈ 16.3 µM) | > 50 µg/mL | 10 µg/mL (≈ 16.3 µM) | > 50 µg/mL | > 50 µg/mL | > 50 µg/mL | 10 µg/mL (≈ 16.3 µM) | D (“D” provided a compound concentration of >50 ppm at 90% inhibition of fungal pathogens) | > 50 µg/mL | 10 to 40 nM | 0.6 to 3 nM | 0.25 to 1 µg/mL (≈ 0.407 to 1.63 µM) | > 4.1 µg/mL | MIC [13, 18]: 2.1 to 4 µg/mL (≈ 3.42 to 6.52 µM) |

Source: patent publication US10941158B2, “Pyrazole ACC inhibitors and uses thereof” (Gilead Apollo, LLC, priority 2015, dated 2021)
